# Experimental data published in PMC4057605 (Journal of immunology (Baltimore, Md. : 1950), 2013).
# Experiments:
# HLA-B*44:02 monochain [1] = system: HLA-B*44:02 monochain; design: species or system mouse (HLA-B*44:02 monochain transgenic, H-2 class I null); conditions: mouse, in vivo, sc
# HLA-B*44:02 monochain [2] = system: HLA-B*44:02 monochain; design: species or system mouse (HLA-B*44:02 monochain transgenic, H-2 class I null); conditions: mouse, in vivo
# HLA-A*01:03 monochain [3] = conditions: mouse, in vivo, sc
# HLA-A*01:03 monochain [4] = conditions: mouse, in vivo
# HLA-B*27:05 monochain [5] = system: HLA-B*27:05 monochain; design: species or system mouse (HLA-B*27:05 monochain transgenic, H-2 class I null); conditions: mouse, in vivo
# HLA-B*27:05 monochain [6] = system: HLA-B*27:05 monochain; design: species or system mouse (HLA-B*27:05 monochain transgenic, H-2 class I null); conditions: mouse, in vivo, sc
# HLA-B*08:01 monochain [7] = system: HLA-B*08:01 monochain; design: species or system mouse (HLA-B*08:01 monochain transgenic, H-2 class I null); conditions: mouse, in vivo, sc
# HLA-B*08:01 monochain [8] = system: HLA-B*08:01 monochain; design: species or system mouse (HLA-B*08:01 monochain transgenic, H-2 class I null); conditions: mouse, in vivo
sequence,measurement,setting,value
AENGWGFYF,CD8+ T cell IFN-γ responses after peptide immunization,HLA-B*44:02 monochain [1],60/41/29/12/9 Spots/10^6 Cells
same,CD8+ T cell IFN-γ responses after DNA immunization,HLA-B*44:02 monochain [2],91/63/46/0 Spots/10^6 Cells
EADPTGHSY,CD8+ T cell IFN-γ responses after peptide immunization,HLA-A*01:03 monochain [3],287/212/123/27 Spots/10^6 Cells
same,CD8+ T cell IFN-γ responses after DNA immunization,HLA-A*01:03 monochain [4],118/91/86/38 Spots/10^6 Cells
EENLLDFVRF,CD8+ T cell IFN-γ responses after peptide immunization,HLA-B*44:02 monochain [1],54/28/27/20/0 Spots/10^6 Cells
same,CD8+ T cell IFN-γ responses after DNA immunization,HLA-B*44:02 monochain [2],134/87/0/0 Spots/10^6 Cells
FEDLRVLSF,CD8+ T cell IFN-γ responses after peptide immunization,HLA-B*44:02 monochain [1],167/61/30/17/8 Spots/10^6 Cells
same,CD8+ T cell IFN-γ responses after DNA immunization,HLA-B*44:02 monochain [2],66/44/0/0 Spots/10^6 Cells
LRGKWQRRYR,CD8+ T cell IFN-γ responses after DNA immunization,HLA-B*27:05 monochain [5],221/213/189/13 Spots/10^6 Cells
same,CD8+ T cell IFN-γ responses after peptide immunization,HLA-B*27:05 monochain [6],113/61/54/23 Spots/10^6 Cells
SRYWAIRTR,CD8+ T cell IFN-γ responses after DNA immunization,HLA-B*27:05 monochain [5],917/890/411/241 Spots/10^6 Cells
same,CD8+ T cell IFN-γ responses after peptide immunization,HLA-B*27:05 monochain [6],567/459/110/0 Spots/10^6 Cells
VSDGGPNLY,CD8+ T cell IFN-γ responses after peptide immunization,HLA-A*01:03 monochain [3],201/134/71/59 Spots/10^6 Cells
same,CD8+ T cell IFN-γ responses after DNA immunization,HLA-A*01:03 monochain [4],265/169/105 Spots/10^6 Cells
WLKIKRDYL,CD8+ T cell IFN-γ responses after peptide immunization,HLA-B*08:01 monochain [7],524/103/97/74/64/0 Spots/10^6 Cells
same,CD8+ T cell IFN-γ responses after DNA immunization,HLA-B*08:01 monochain [8],327/46/39/21/21/11 Spots/10^6 Cells
